# Measured values reported in US20090047221A1 (NIPRI LIMITED, priority 2004, published 2009).
# Test system: cancer cell line MDA-MB-468
# Assay: Combination index with known cancer drugs against proliferation (Calcusyn software)
# Assay type: cell-based
# Excerpt: A combination index of less than 0.1 indicates very strong synergy; a combination index of 0.1 to 0.3 indicates strong synergism; a combination index of 0.3 to 0.7 indicates synergism; a combination index of 0.7 to 0.85 indicates moderate synergism; a combination index of 0.85 to 0.9 indicates slight synergism and a combination index of 0.9 to 1.1 indicates only very slight synergism, said combination being close to merely additive.
# The combination index may be calculated using calcusyn software.
# Evidence of synergy was determined by calculation of the combination index using Calcusyn software.
# The MTT assay was used initially to determine the anti-proliferative activity of the test compounds. In the MTT assay a yellow thiazolyl blue tetrazolium bromide salt (MTT) is reduced, in metabolically active cells, to form insoluble purple formazan crystals which are solubilised by the addition of dimethyl sulphoxide (DMSO). Absorbance readings can then be determined spectrophotometrically and a relationship established between control untreated cells and drug treated cells enabling the quantification of anti-proliferative changes as a result of drug treatment (Mosmann, 1983).
# Wells containing medium only were used as blanks. Following the attachment period, cells were treated with appropriate drug concentrations (20 μl added per well). 40 mg/ml stock drug solutions, in DMSO, were stored at −20° C. and on the day of drug treatment working solutions of 4 mg/ml were prepared in medium which was further diluted to achieve final drug dilution volumes of 20 μl. Initial screening was determined over a concentration range of 1-200 μg/ml. For potent compounds the assay was repeated over a narrower concentration range to determine accurate IC50 values. Cells were exposed to drug for 96 h continual exposure (37° C., 5% CO2). Following the 96 h incubation, 50 μl MTT solution (1 g MTT/500 ml PBS) was added per well and the plates were further incubated for 4 h (37° C., 5% CO2). After incubation the MTT and medium was removed from the wells and 100 μl DMSO added per well. Plates were agitated on an orbital mixer platform (Stuart Scientific) for 10 minutes. Absorbance was measured at 570 nm on a Biotrak II (Amersham Bioscience) plate reader. IC50 values were calculated comparing control and drug treated cells.
smiles,measurement,setting,value
"CCCCC/C=C\C/C=C\C/C=C\CCCCCOC(=O)c1ccc2c(c1O)C(=O)OC(C)C2 (racemic) [ALM-43, γ-Linolenyl Ester]",Combination Index,"Cisplatin 1 × 10^−2 mol/L, ALM compound 0.1 μg/ml",0.063
same,Combination Index,"Cisplatin 1 × 10^−2 mol/L, ALM compound 0.5 μg/ml",0.003
same,Combination Index,"Cisplatin 1 × 10^−2 mol/L, ALM compound 1.0 μg/ml",0.007
same,Combination Index,"Cisplatin 1 × 10^−2 mol/L, ALM compound 5.0 μg/ml",0.038
same,Combination Index,"Cisplatin 1 × 10^−3 mol/L, ALM compound 0.1 μg/ml",No
same,Combination Index,"Cisplatin 1 × 10^−3 mol/L, ALM compound 0.5 μg/ml",No
same,Combination Index,"Cisplatin 1 × 10^−3 mol/L, ALM compound 1.0 μg/ml",No
same,Combination Index,"Cisplatin 1 × 10^−3 mol/L, ALM compound 5.0 μg/ml",No
same,Combination Index,"Cisplatin 1 × 10^−4 mol/L, ALM compound 0.1 μg/ml",No
same,Combination Index,"Cisplatin 1 × 10^−4 mol/L, ALM compound 0.5 μg/ml",No
same,Combination Index,"Cisplatin 1 × 10^−4 mol/L, ALM compound 1.0 μg/ml",No
same,Combination Index,"Cisplatin 1 × 10^−4 mol/L, ALM compound 5.0 μg/ml",No
same,Combination Index,"Cisplatin 1 × 10^−5 mol/L, ALM compound 0.1 μg/ml",No
same,Combination Index,"Cisplatin 1 × 10^−5 mol/L, ALM compound 0.5 μg/ml",No
same,Combination Index,"Cisplatin 1 × 10^−5 mol/L, ALM compound 1.0 μg/ml",No
same,Combination Index,"Cisplatin 1 × 10^−5 mol/L, ALM compound 5.0 μg/ml",No
same,Combination Index,"Cisplatin 1 × 10^−6 mol/L, ALM compound 0.1 μg/ml",No
same,Combination Index,"Cisplatin 1 × 10^−6 mol/L, ALM compound 0.5 μg/ml",No
same,Combination Index,"Cisplatin 1 × 10^−6 mol/L, ALM compound 1.0 μg/ml",No
same,Combination Index,"Cisplatin 1 × 10^−6 mol/L, ALM compound 5.0 μg/ml",No
same,Combination Index,"Cisplatin 1 × 10^−7 mol/L, ALM compound 0.1 μg/ml",0.636
same,Combination Index,"Cisplatin 1 × 10^−7 mol/L, ALM compound 0.5 μg/ml",0.612
same,Combination Index,"Cisplatin 1 × 10^−7 mol/L, ALM compound 1.0 μg/ml",No
same,Combination Index,"Cisplatin 1 × 10^−7 mol/L, ALM compound 5.0 μg/ml",No
same,Combination Index,"Cisplatin 1 × 10^−8 mol/L, ALM compound 0.1 μg/ml",0.199
same,Combination Index,"Cisplatin 1 × 10^−8 mol/L, ALM compound 0.5 μg/ml",No
same,Combination Index,"Cisplatin 1 × 10^−8 mol/L, ALM compound 1.0 μg/ml",No
same,Combination Index,"Cisplatin 1 × 10^−8 mol/L, ALM compound 5.0 μg/ml",No
same,Combination Index,"Cisplatin 1 × 10^−9 mol/L, ALM compound 0.1 μg/ml",0.054
same,Combination Index,"Cisplatin 1 × 10^−9 mol/L, ALM compound 0.5 μg/ml",0.536
same,Combination Index,"Cisplatin 1 × 10^−9 mol/L, ALM compound 1.0 μg/ml",No
same,Combination Index,"Cisplatin 1 × 10^−9 mol/L, ALM compound 5.0 μg/ml",No
same,Combination Index,"Doxorubicin 1 × 10^−4 mol/L, ALM compound 0.1 μg/ml",No
same,Combination Index,"Doxorubicin 1 × 10^−4 mol/L, ALM compound 0.5 μg/ml",No
same,Combination Index,"Doxorubicin 1 × 10^−4 mol/L, ALM compound 1.0 μg/ml",No
same,Combination Index,"Doxorubicin 1 × 10^−4 mol/L, ALM compound 5.0 μg/ml",No
same,Combination Index,"Doxorubicin 1 × 10^−5 mol/L, ALM compound 0.1 μg/ml",0.385
same,Combination Index,"Doxorubicin 1 × 10^−5 mol/L, ALM compound 0.5 μg/ml",0.700
same,Combination Index,"Doxorubicin 1 × 10^−5 mol/L, ALM compound 1.0 μg/ml",0.278
same,Combination Index,"Doxorubicin 1 × 10^−5 mol/L, ALM compound 5.0 μg/ml",0.457
same,Combination Index,"Etoposide 1 × 10^−4 mol/L, ALM compound 0.1 μg/ml",0.399
same,Combination Index,"Etoposide 1 × 10^−4 mol/L, ALM compound 0.5 μg/ml",0.289
same,Combination Index,"Etoposide 1 × 10^−4 mol/L, ALM compound 1.0 μg/ml",0.418
same,Combination Index,"Etoposide 1 × 10^−4 mol/L, ALM compound 5.0 μg/ml",0.474
same,Combination Index,"Etoposide 1 × 10^−5 mol/L, ALM compound 0.1 μg/ml",No
same,Combination Index,"Etoposide 1 × 10^−5 mol/L, ALM compound 0.5 μg/ml",No
same,Combination Index,"Etoposide 1 × 10^−5 mol/L, ALM compound 1.0 μg/ml",No
same,Combination Index,"Etoposide 1 × 10^−5 mol/L, ALM compound 5.0 μg/ml",No
same,Combination Index,"Etoposide 1 × 10^−6 mol/L, ALM compound 0.1 μg/ml",No
same,Combination Index,"Etoposide 1 × 10^−6 mol/L, ALM compound 0.5 μg/ml",0.865
same,Combination Index,"Etoposide 1 × 10^−6 mol/L, ALM compound 1.0 μg/ml",No
same,Combination Index,"Etoposide 1 × 10^−6 mol/L, ALM compound 5.0 μg/ml",No
same,Combination Index,"Etoposide 1 × 10^−7 mol/L, ALM compound 0.1 μg/ml",0.473
same,Combination Index,"Etoposide 1 × 10^−7 mol/L, ALM compound 0.5 μg/ml",0.305
same,Combination Index,"Etoposide 1 × 10^−7 mol/L, ALM compound 1.0 μg/ml",No
same,Combination Index,"Etoposide 1 × 10^−7 mol/L, ALM compound 5.0 μg/ml",No
same,Combination Index,"Etoposide 1 × 10^−8 mol/L, ALM compound 0.1 μg/ml",0.181
same,Combination Index,"Etoposide 1 × 10^−8 mol/L, ALM compound 0.5 μg/ml",0.137
same,Combination Index,"Etoposide 1 × 10^−8 mol/L, ALM compound 1.0 μg/ml",No
same,Combination Index,"Etoposide 1 × 10^−8 mol/L, ALM compound 5.0 μg/ml",No
same,Combination Index,"Etoposide 1 × 10^−9 mol/L, ALM compound 0.1 μg/ml",0.090
same,Combination Index,"Etoposide 1 × 10^−9 mol/L, ALM compound 0.5 μg/ml",0.319
same,Combination Index,"Etoposide 1 × 10^−9 mol/L, ALM compound 1.0 μg/ml",No
same,Combination Index,"Etoposide 1 × 10^−9 mol/L, ALM compound 5.0 μg/ml",No
same,Combination Index,"Etoposide 1 × 10^−10 mol/L, ALM compound 0.1 μg/ml",0.083
same,Combination Index,"Etoposide 1 × 10^−10 mol/L, ALM compound 0.5 μg/ml",0.515
same,Combination Index,"Etoposide 1 × 10^−10 mol/L, ALM compound 1.0 μg/ml",No
same,Combination Index,"Etoposide 1 × 10^−10 mol/L, ALM compound 5.0 μg/ml",No
same,Combination Index,"Irinotecan 1 × 10^−3 mol/L, ALM compound 0.1 μg/ml",0.088
same,Combination Index,"Irinotecan 1 × 10^−3 mol/L, ALM compound 0.5 μg/ml",0.230
same,Combination Index,"Irinotecan 1 × 10^−3 mol/L, ALM compound 1.0 μg/ml",0.438
same,Combination Index,"Irinotecan 1 × 10^−3 mol/L, ALM compound 5.0 μg/ml",0.307
same,Combination Index,"Irinotecan 1 × 10^−4 mol/L, ALM compound 0.1 μg/ml",0.019
same,Combination Index,"Irinotecan 1 × 10^−4 mol/L, ALM compound 0.5 μg/ml",0.005
same,Combination Index,"Irinotecan 1 × 10^−4 mol/L, ALM compound 1.0 μg/ml",0.040
same,Combination Index,"Irinotecan 1 × 10^−4 mol/L, ALM compound 5.0 μg/ml",0.113
same,Combination Index,"Irinotecan 1 × 10^−5 mol/L, ALM compound 0.1 μg/ml",No
same,Combination Index,"Irinotecan 1 × 10^−5 mol/L, ALM compound 0.5 μg/ml",No
same,Combination Index,"Irinotecan 1 × 10^−5 mol/L, ALM compound 1.0 μg/ml",No
same,Combination Index,"Irinotecan 1 × 10^−5 mol/L, ALM compound 5.0 μg/ml",No
same,Combination Index,"Irinotecan 1 × 10^−6 mol/L, ALM compound 0.1 μg/ml",No
same,Combination Index,"Irinotecan 1 × 10^−6 mol/L, ALM compound 0.5 μg/ml",No
same,Combination Index,"Irinotecan 1 × 10^−6 mol/L, ALM compound 1.0 μg/ml",No
same,Combination Index,"Irinotecan 1 × 10^−6 mol/L, ALM compound 5.0 μg/ml",No
same,Combination Index,"Irinotecan 1 × 10^−7 mol/L, ALM compound 0.1 μg/ml",No
same,Combination Index,"Irinotecan 1 × 10^−7 mol/L, ALM compound 0.5 μg/ml",No
same,Combination Index,"Irinotecan 1 × 10^−7 mol/L, ALM compound 1.0 μg/ml",No
same,Combination Index,"Irinotecan 1 × 10^−7 mol/L, ALM compound 5.0 μg/ml",No
same,Combination Index,"Irinotecan 1 × 10^−8 mol/L, ALM compound 0.1 μg/ml",0.514
same,Combination Index,"Irinotecan 1 × 10^−8 mol/L, ALM compound 0.5 μg/ml",0.233
same,Combination Index,"Irinotecan 1 × 10^−8 mol/L, ALM compound 1.0 μg/ml",No
same,Combination Index,"Irinotecan 1 × 10^−8 mol/L, ALM compound 5.0 μg/ml",No
same,Combination Index,"Irinotecan 1 × 10^−9 mol/L, ALM compound 0.1 μg/ml",0.701
same,Combination Index,"Irinotecan 1 × 10^−9 mol/L, ALM compound 0.5 μg/ml",0.628
same,Combination Index,"Irinotecan 1 × 10^−9 mol/L, ALM compound 1.0 μg/ml",No
same,Combination Index,"Irinotecan 1 × 10^−9 mol/L, ALM compound 5.0 μg/ml",No
same,Combination Index,"Irinotecan 1 × 10^−11 mol/L, ALM compound 0.1 μg/ml",0.172
same,Combination Index,"Irinotecan 1 × 10^−11 mol/L, ALM compound 0.5 μg/ml",0.484
same,Combination Index,"Irinotecan 1 × 10^−11 mol/L, ALM compound 1.0 μg/ml",No
same,Combination Index,"Irinotecan 1 × 10^−11 mol/L, ALM compound 5.0 μg/ml",No
